Assay results reported in patent EP4775209A1 (Ascentawits Pharmaceuticals, Ltd., priority 2023, dated 2025).
Read-outs that look alike come from different tables or passages of the source.

Experiments:
[1] = Toxicokinetics (D1+D8/21 Days) in monkeys; assay type: in vivo, cynomolgus monkeys; conditions: both sexes, cynomolgus monkey, in vivo, iv
[2] = GLP repeated-administration toxicity study (D1+D8/21 Days) in rats; assay type: in vivo, Sprague-Dawley (SD) rats; conditions: intravenous bolus on Days 1, 8, 22, 29
Experimental: Rats developed test article-related, dose-dependent lesions at the injection sites and the distal ends of the tails. At the 10 mg/kg dose, there were mild and reversible changes in hematology and serum biochemistry parameters.

[3] = Phase I clinical trial of AST-3424 in China: blood pharmacokinetics compared with US data; assay type: in vivo, human; conditions: human, Chinese and American patients, printed as 'almost lower than', read-out: concentrations after 8 hours
[4] = system: human liver cancer (HepG2-GFP) orthotopic CDX model; assay: Human liver cancer orthotopic CDX efficacy model (QW×2 regimen); assay type: in vivo, nude mice; conditions: 1.25, 2.5, 5 mg/kg, QW×2, drug free one week, QW×2, I.V.; significant dose-effect relationship
Excerpt: The data from this experiment correspond to the data of the HepG2 model in Example 3-1 of the aforementioned Patent Application 2 (see Table 5 and Figures 4A, 4B of this application).

[5] = system: human lung cancer (H460-GFP) subcutaneous CDX model; assay: Human lung cancer CDX efficacy model (QW×2 regimen); assay type: in vivo, nude mice; conditions: QW×2, QW×2, I.V., P<0.01
Experimental: Images of tumor burden in mice were non-invasively collected twice a week by a Fluor Vivo Model 100 imaging system, and the mean value of tumor area in each group was calculated based on imaging analysis results. […] The data from this experiment are the data for the H460 model in Example 3-1 of the aforementioned Patent Application 2 (see Table 5 and Figure 5 of this application).

[6] = system: HuPrime® liver cancer LI6664 subcutaneous xenograft PDX model; assay: Liver cancer LI6664 subcutaneous xenograft PDX efficacy model; assay type: in vivo, BALB/c nude mice; conditions: all AST-3424 treatment groups (0.3, 1, 1.25 mg/kg)
[7] = Phase I solid tumor clinical trial of AST-3424 in China (CTR20191399): safety and tolerability; assay type: in vivo, human; conditions: Day 1 and Day 8 of every 21-day treatment cycle; Chinese subjects
Experimental: The treatment cycle was 21 days, with administration on Day 1 and Day 8. Dose escalation was conducted across five dose levels: 1.0, 2.0, 4.0, 6.0, and 8.0 mg/m^2. After discussion by the Safety Review Committee (SRC), the MTD and RP2D when administered on Day 1 and Day 8 of every 21-day treatment cycle were confirmed as 6.0 mg/m^2 (a total dose of 12 mg/m^2 per cycle). The safety and tolerability were slightly better in the U.S. subjects than in the Chinese subjects (with a marginally higher MTD/RP2D under the same dosing regimen than those in the Chinese population). The safety profile trends were consistent (most adverse events were mild in severity; the most common adverse events included anemia, decreased platelet count, fatigue, and vomiting). Other safety, PK and efficacy results were generally similar to those in the clinical trials of OBI-3424.

solid tumors = conditions: 21 patients of 39; cited from earlier work
[8] = system: HuPrime® pancreatic cancer PA1280 subcutaneous xenograft model; assay: Pancreatic cancer PA1280 subcutaneous xenograft efficacy model; assay type: in vivo, BALB/c nude mice
Experimental: The drug was administered via tail vein injection once weekly for a total of three weeks, followed by one week of observation.

[9] = system: HuPrime® pancreatic cancer PA9451 subcutaneous xenograft model; assay: Pancreatic cancer PA9451 subcutaneous xenograft efficacy model; assay type: in vivo, BALB/c nude mice; conditions: for TGI (%): Day 36, P<0.001; for mean tumor volume: Day 36 after first administration
[10] = cited from earlier work
[11] = cited from earlier work; remark: listed apart in the source
[12] = system: HuPrime® lung cancer LU5173 subcutaneous xenograft model
Excerpt: For the experimental procedures and relevant evaluation indicators of the aforementioned solid tumor animal efficacy models, please refer to Examples 7, 8, and 9 in Patent Application 1, namely PCT/US2016/062114, with Publication No. WO2017/087428 (corresponding to Chinese Application CN201680044608.1, with Publication No. CN108290911B), Examples 3 and 4 in Patent Application 2, namely PCT/CN2021/078115, with Publication No. WO2022178821, and Research Literature 1. The aforementioned non-clinical animal efficacy models (PDX) mentioned in the present application are all similar to those in the aforementioned literatures, and the specific operation procedures thereof are not described herein again.
The LU5173 is a HuPrime® xenograft model established from a lung cancer (small cell lung carcinoma) tumor of a patient.
Efficacy was evaluated based on the relative tumor growth inhibition (TGI, %), and safety was evaluated based on animal body weight changes and mortality.

[13] = 1 mg/kg QD×5, 16 days off, QD×5
[14] = 2 mg/kg once weekly for 2 weeks
[15] = Regimen A, 12 mg/m^2 dose level

C[C@H](OP(=O)(N1CC1)N1CC1)c1ccc([N+](=O)[O-])c(Oc2cccc(C(=O)N(C)C)c2)c1 [AST-3424]
Vd [1]: 0.223 to 0.676 L/kg
clearance [1]: 11.8 to 18.2 mL/min/kg
NOAEL ([2]; Sprague-Dawley, rat, in vivo, read-out: no-observed-adverse-effect level (NOAEL)): 3 mg/kg
dose at which 10% of animals showed severe toxic reactions (STD10) [2]: 30 mg/kg
concentration at 8 h [3]: < 1 ng/mL
effect on the orthotopic model of human liver cancer in mice [4]: strong inhibitory effect
TGI ([5]; 0.625 mg/kg, 1-week off): 60.2%
TGI ([5]; 1.25 mg/kg, 1 week off): 67.2%
TGI ([5]; 2.5 mg/kg, 1 week off): 88%
tolerability (body weight changes and mortality) [6]: well tolerated
MTD [7]: 6.0 mg/m^2
RP2D [7]: 6.0 mg/m^2
confirmed best response stable disease (solid tumors): 54%
tolerability (body weight changes and mortality) ([8]; 2.5 mg/kg once weekly for three weeks, no animal deaths, no apparent drug toxicity): well tolerated
mean tumor volume ([8]; 2.5 mg/kg tail vein once weekly for three weeks, Day 27, vehicle 475.07): 190.34 mm^3
TGI (%) ([9]; 0.5 mg/kg QD×5, 16 days off, QD×5): 91.77%
mean tumor volume ([9]; 0.5 mg/kg QD×5, 16 days off, QD×5, vehicle 661.61): 54.83 mm^3
TGI (%) [9, 13]: 92.99%
mean tumor volume [9, 13]: 46.05 mm^3
TGI (%) [9, 14]: 88.53%
mean tumor volume [9, 14]: 76.78 mm^3
tolerability (body weight changes and mortality) ([9]; AST-3424 groups 0.5, 1 mg/kg QD×5 and 2 mg/kg QW, no animal deaths, no apparent drug toxicity): well tolerated
probability of grade ≥3 TEAEs ([10]; 12 mg/m^2 on Day 1 and Day 8 of 21-day cycle (all 6 patients)): 100%
probability of grade ≥3 TEAEs ([10]; 12 mg/m^2 only on Day 1 of 21-day cycle (2 out of 6 patients)): 33.3%
recommended Phase II dose (RP2D) ([10]; 21 days per cycle, administration on Day 1 (once every 3 weeks)): 12 mg/m^2
dose-limiting toxicity: anemia Grade 3-4 [10, 15]: 5 out of 6
dose-limiting toxicity: thrombocytopenia Grade 3-4 [10, 15]: 5 out of 6
maximum tolerated dose (MTD) ([10]; Regimen A: i.v., 21 days per cycle, administration on Day 1 and Day 8): 8 mg/m^2
nadir of the platelet count ([10]; Regimen A): Day 15 or Day 22
patients with Grade 3 or higher anemia ([10]; Regimen B, 14 mg/m^2, among 6 patients treated): 3 patients
MTD ([10]; Regimen B: i.v., 21 days per cycle, administration only on Day 1, highest tested dose 14 mg/m^2): not reached
patients who experienced treatment-emergent adverse events (TRAEs) ([10]; all 39 patients (32/39)): 82%
Grade ≥3 TRAEs ([10]; all 39 patients): 49%
TRAE anemia ([10]; all 39 patients): 64%
TRAE fatigue ([10]; all 39 patients): 21%
TRAE nausea ([10]; all 39 patients): 26%
TRAE thrombocytopenia ([10]; all 39 patients): 51%
patients who experienced serious TRAEs ([10]; all 39 patients): 3 patients
T1/2 ([11]; after intravenous OBI-3424, US patients, parent drug and metabolite): approximately 0.4 hours
pharmacokinetic characteristics ([11]; doses ranging from 1 to 14 mg/m^2, minimal accumulation after repeated administration): linear pharmacokinetic characteristics
tolerability (body weight changes and mortality) ([12]; 1 mg/kg QD×5, 2 cycles, no animal deaths): well tolerated
TGI (%) ([12]; day 32 after first administration, AST-3424 1 mg/kg QD×5, 16 days off, QD×5 (P < 0.001), ifosfamide 6.0 mg/kg QD×5/week for 2 weeks (p > 0.05)): 78.56%
mean tumor volume ([12]; day 32 after first administration, AST-3424 1 mg/kg QD×5, 16 days off, QD×5, ifosfamide 6.0 mg/kg QD×5/week for 2 weeks, vehicle 2276.68): 503.91 mm^3
